Here are results for one molecule from ChEMBL document CHEMBL5537171, “Design, Synthesis, and Biological Evaluation of Potent and Selective PROTAC Degraders of Oncogenic KRASG12D” (J Med Chem, 2024).

The test system of the assay is NCI-H358. Kind of assay: Antiproliferative activity against human NCI-H358 cells harboring KRAS G12C mutant assessed as inhibition of cell viability incubated for 5 days by Cell Titer Glo assay. It is filed as functional, cell-based. The conditions noted are these: NCI-H358, 120 h. (In general: Cellular ATP, detected with luciferase, serves as a proxy for viable cell number.)

The term IC50 denotes the concentration that gives 50% inhibition. Regarding `CCc1c(F)ccc2cc(O)cc(-c3ncc4c(N5C[C@H]6CC[C@@H](C5)N6)nc(OC[C@@H]5CCCN5CCCCOCC(=O)N[C@H](C(=O)N5C[C@H](O)C[C@H]5C(=O)N[C@@H](C)c5ccc(-c6scnc6C)cc5)C(C)(C)C)nc4c3F)c12`, the half-maximal inhibitory concentration (IC50) was over 9 µM.
